Experimental data published in patent US7425579B2, “Methods for inhibiting activity of polyamine transporters” (Universite Laval, priority 1998, dated 2008).
Read-outs that look alike come from different tables or passages of the source.

Key:
[1] = test system: mammalian polyamine carrier; assay: Determination of polyamine uptake activity: inhibition of diamine and polyamine transport in T-47D cells; assay type: cell-based, human; conditions: for Ki: mean±SD; for Km: substrate itself
Procedure: The rate of diamine and polyamine transport was determined in T-47D and ZR-75-1 cells incubated in serum-free RPMI 1640 medium as previously described (U.S. Pat. No. 6,083,496; Covassin et al. (1999) Bioorg. Med. Chem. Lett. 9, 1709-1714), using 20 μM [^3H]putrescine (179 Ci/mol), 5 μM [^3H]spermidine (246 Ci/mol) and 3 μM [^14C]spermine (300-400 mCi/mol) respectively, as substrates for a 20-min assay period. Uptake activity was expressed per amount of DNA as fluorometrically determined using 3,5-diaminobenzoic acid (Simard et al. (1990) Endocrinology 126, 3223-3231). Kinetic parameters of polyamine transport inhibition for the transport antagonists were determined by Lineweaver-Burke analysis of uptake activity in the presence of 0.1 μM [^3H]putrescine, 0.03 μM [^3H]spermidine, and 0.01 μM [^14C]spermine plus increasing concentrations of nonradioactive substrate. For competitive inhibitors, Ki values were estimated by iterative curve fitting for sigmoidal equations describing transport rates in the presence of increasing concentrations of antagonist, using the Cheng-Prusoff equation for competitive inhibition (U.S. Pat. No. 6,083,496).
The ability of BSD and BNSD compounds to inhibit uptake of the main natural substrates of the mammalian polyamine carrier, namely putrescine, spermidine and spermine, was evaluated using T-47D human breast cancer cells (Table 1).
Data are presented as the mean±SD of at least two independent determinations of IC50 values, each based on triplicate determinations of uptake velocity at increasing inhibitor concentrations.
The potency of the polyamines and their xylylated dimers as competitive inhibitors of spermidine transport was evaluated in the T-47D human breast cancer cell line (Table 2).

CHO-K1 cells = assay: Determination of intracellular polyamine contents in CHO-K1 cells; assay type: cell-based, Chinese hamster
Procedure: At the indicated time, cells were harvested for the determination of putrescine (A), spermidine (B) and spermine contents (C). Data are presented as the mean±SD for triplicate cultures from one representative experiment; […] At the indicated time intervals, medium was removed, cell monolayers were rinsed twice: with 10 ml of ice-cold Ca^2+/Mg^2+-free phosphate-buffered saline (PBS) (2.7 mM KCl, 1.5 mM KH2PO4, 8.1 mM Na2HPO4, 137 mM NaCl), and cells were harvested by low-speed centrifugation (2400 g for 5 min at 4° C.). […] Polyamine content was then determined by ion-pair reverse phase HPLC with fluorometric detection after post-column derivatization with o-phthaldialdehyde as described (U.S. Pat. No. 6,083,496). […] Pat. No. 6,083,496).

[2] = test system: MDA-MB-231 human breast cancer xenograft; assay: MDA-MB-231 human breast cancer xenograft in nude mice; assay type: in vivo, immunodeficient CD-1 mice; conditions: 39 d
Procedure: (§1) In particular, the mice have been treated with the following compounds: BNSD-X (1% w/v) (●), 0.3 (w/v) DFMO (□), 0.3% DFMO+BNSD-X (▪), 1% (w/v) DFMO (Δ), or 1% DFMO+BNSD-X (▴). Drugs were dissolved in drinking water which was given ad libitum to the animals. Control mice (∘) received distilled water only;
as §1, with “only; and” for “only;”
In particular, these compounds are BNSD-X (1% w/v), 0.3 (w/v) DFMO, 0.3% DFMO+BNSD-X, 1% (w/v) DFMO, or 1% DFMO+BNSD-X Drugs were dissolved in drinking water which was given ad libitum to the animals. Control mice received distilled water only.
For human xenograft experiments, athymic CD-1 mice were inoculated with 5×10^6 MDA-MB-231 human breast cancer cells (grown in tissue culture incubators to mid-exponential phase) in both sides of the inguinal mammary fat pad. After ˜2 weeks, when the tumor had reached a diameter ˜4 mm (as measured with a caliper), control mice were paired to treated ones in accordance with tumor volume (time zero). Animals were allowed free access to water containing 0, 0.3 or 1% DFMO (w/v), plus or minus 1% (w/v) BNSD-X (7 mice/experimental group). Tumor volume (V) was measured twice weekly with a caliper in 2 dimensions using the approximation V=(L×w^2)/2, where L is the length and w is the width of the xenograft (Bandyopadhyay et al., (2002) Cancer Res. 62:4690-4695). Animals were sacrificed after 39 d (i.e. when tumor size in control mice had reached about 500 mm^3). Mammary tumors were be excised and weighed.
The efficacy of BNSD-X as a chemotherapeutic agent was assessed in the MDA-MB-231 model of human breast cancer xenograft in the nude mouse, a model which is known to be sensitive to polyamine depletion by DFMO (Weeks et al., (2000) Exp Cell Res. 261:293-302). For that purpose, MDA-MB-231 cells were injected in the left and right mammary fat pads of immunodeficient CD-1 mice. Mice were then allowed to drink either BNSD-X at the optimal concentration (1%, w/v), as well as DFMO at either 0.3% or 1% (w/v) plus or minus 1% BNSD-X for 39 days before sacrificing the animals and measuring total final tumor mass (FIG. 12-14). The BNSD-X solution alone or with 0.3% DFMO led to a slight (˜7%) reduction of body weight, which was attenuated by the addition of 1% DFMO (FIG. 13) However, this effect of body weight could largely be accounted on the decreased tumor burden in the BNSD-X treated animals (FIG. 14). […]

T-47D cells = assay: Reversal of DFMO-induced cytostasis by exogenous spermidine in T-47D cells; assay type: cell-based, human; conditions: T-47D cells with extracellular spermidine and DFMO
Procedure: FIGS. 6A, 6B, 6C and 6D are graph showing that antagonism of DFMO-induced cytostasis by exogenous spermidine depends on the polyamine and linker structure of the compounds used in a method according to a preferred embodiment of the invention. In particular, T-47D cells were grown for 8-9 d with the indicated concentrations of spermidine in medium containing 1 mM aminoguanidine, in the presence of DFMO (●), transport inhibitor (□), DFMO plus transport inhibitor (▪), or in the absence of either agent (∘), and total DNA content per culture was then determined. Panels A, B, C, and D describe the effect of BNSD-X, BSD-X, BNSD-3 and BSD-3, respectively. Data are presented as the mean±SD for triplicate cultures from one out of at least two identical experiments;
FIGS. 8A and 8B are graphs representing the time course of the effect of a compound used in a method according to a preferred embodiment of the invention on rescue of DFMO-induced cytostasis by exogenous spermidine. In particular, at time zero, T-47D (panel A) or CHO-K1 (panel B) were seeded at 1×10^4 or 5×10^3 cells/well, respectively, in medium containing 1 mM aminoguanidine, plus either 0.3 μM spermidine (Spd, ●), 2 mM DFMO (□), Spd+DFMO (▪), 50 μM (A) or 100 μM (B) BNSD-X (Δ), BNSD-X+Spd (▴), BNSD-X+DFMO (□), BNSD-X+Spd+DFMO (▾), or vehicle only (∘). At the indicated time, total DNA content/well was determined. Data are presented as the mean±SD for triplicate cultures from one representative experiment;
To determine the ability of polyamine transport antagonists to potentiate DFMO-induced inhibition of cell proliferation in the presence of exogenous polyamines, cells were grown for the indicated period in growth medium supplemented with 1 mM aminoguanidine, and either DFMO (1 to 5 mM), the indicated transport inhibitor (50 or 100 μM), or the combination thereof, as well as increasing concentrations of spermidine (0.1 to 300 μM). Fresh medium was added every other day, and cell mass was determined at various time points during the period of exponential growth, or at the end of the experimental period. For the latter experiments, the FBS supplement was replaced with dextran-coated charcoal-treated FBS (5%, v/v) plus 0.5 μg/ml insulin in the case of T-47D, ZR-75-1 and MCF-7 cells (U.S. Pat. No. 6,083,496).

[3] = T-47D breast cancer cells, read-out: Ki, inhibition of [3H]putrescine uptake
[4] = T-47D breast cancer cells, read-out: Ki, inhibition of [3H]spermidine uptake
[5] = T-47D human breast cancer cells, calculated from IC50, read-out: Ki for the inhibition of spermidine transport (Table 2)
[6] = T-47D breast cancer cells, read-out: Ki, inhibition of [14C]spermine uptake

## NCCCNCCCCNCCCN [Spermine, reference compound]
[1]; [3]
  Ki: 0.65 ± 0.12 µM
[1]; [4]
  Ki: 0.92 ± 0.08 µM
[1]; T-47D breast cancer cells, read-out: Km for [14C]spermine uptake
  Km: 2.7 ± 0.4 µM
[1]; [5]
  Ki: 2.1 ± 0.2 µM

## NCCCCN(CCCN)CCCCCCN(CCCN)CCCCN [22b]
[1]; [3]
  Ki: 0.91 ± 0.11 µM
[1]; [4]
  Ki: 0.69 ± 0.16 µM
[1]; [6]
  Ki: 6.3 ± 0.8 µM

## NCCCN(CCCN)CCN(CCCN)CCCN [18a]
[1]; [3]
  Ki: 1.2 ± 0.2 µM
[1]; [4]
  Ki: 17.3 ± 1.4 µM
[1]; [6]
  Ki: 20.4 ± 6.9 µM

## NCCCCN(CCCN)CCCCCCCCN(CCCN)CCCCN [23b]
[1]; [3]
  Ki: 0.44 ± 0.07 µM
[1]; [4]
  Ki: 3 ± 0.2 µM
[1]; [6]
  Ki: 3.6 ± 0.7 µM

## NCCCN(CCCN)CCCCCCN(CCCN)CCCN [22a]
[1]; [3]
  Ki: 0.72 ± 0.18 µM
[1]; [4]
  Ki: 2.4 ± 0.3 µM
[1]; [6]
  Ki: 0.82 ± 0.1 µM

## NCCC[C@](N)(C(=O)O)C(F)F [DFMO, α-difluoromethylornithine, reference compound]
CHO-K1 cells; after a 24-h lag period, up to 4 days
  decrease of the intracellular spermidine pool by DFMO alone: 80%
CHO-K1 cells; single agent
  effect on intracellular putrescine content: rapidly led to putrescine depletion
CHO-K1 cells; up to 4 days
  effect on intracellular spermine content: little effect on spermine content
[2]; DFMO alone (0.3%)
  reduction of tumor burden: 50±6%
[2]; DFMO alone (1%)
  growth inhibition (tumor): 73±7%

## NCCCCN(CCCN)Cc1cccc(CN(CCCN)CCCCN)c1 [27b]
[1]; [3]
  Ki: 0.19 ± 0.05 µM
[1]; [4]
  Ki: 1.6 ± 0.1 µM
[1]; [6]
  Ki: 2.4 ± 0.3 µM

## NCCCCN(CCCN)CCCCN(CCCN)CCCCN [20b]
[1]; [3]
  Ki: 0.52 ± 0.06 µM
[1]; [4]
  Ki: 2.4 ± 0.4 µM
[1]; [6]
  Ki: 6.2 ± 0.6 µM

## NCCCCN(CCCN)CCCCCN(CCCN)CCCCN [21b]
[1]; [3]
  Ki: 0.57 ± 0.1 µM
[1]; [4]
  Ki: 0.83 ± 0.08 µM
[1]; [6]
  Ki: 8 ± 1.1 µM

## NCCCCN(CCCN)CCCCCCCCCCN(CCCN)CCCCN [24b]
[1]; [3]
  Ki: 0.14 ± 0.01 µM
[1]; [4]
  Ki: 1.2 ± 0.2 µM
[1]; [6]
  Ki: 1.9 ± 0.3 µM

## NCCCN(CCCN)CCCCCCCCN(CCCN)CCCN [23a]
[1]; [3]
  Ki: 0.66 ± 0.06 µM
[1]; [4]
  Ki: 7.5 ± 1.6 µM
[1]; [6]
  Ki: 7 ± 1 µM

## NCCCCN [Putrescine, 1,4-diaminobutane, reference compound]
[1]; T-47D breast cancer cells, read-out: Km for [3H]putrescine uptake
  Km: 7.4 ± 1.1 µM
[1]; [5]
  Ki: > 500 µM

## NCCCCN(CCCN)CCN(CCCN)CCCCN [18b]
[1]; [3]
  Ki: 0.65 ± 0.07 µM
[1]; [4]
  Ki: 3 ± 0.5 µM
[1]; [6]
  Ki: 5.9 ± 1.1 µM

## NCCCN(C/C=C/CN(CCCN)CCCN)CCCN [25a]
[1]; [3]
  Ki: 0.1 ± 0.01 µM
[1]; [4]
  Ki: 1.8 ± 0.1 µM
[1]; [6]
  Ki: 1.5 ± 0.1 µM

## NCCCNCCCC(NCCCN)C(=O)NCCSSCCNC(=O)C(CCCNCCCN)NCCCN (centres unmarked) [DESC, 2,2′-dithiobis(N-ethyl-spermine-5-carboxamide), reference compound]
[1]; [3]
  Ki: 3.1 ± 0.4 µM
[1]; [4]
  Ki: 12.6 ± 1.4 µM
[1]; [6]
  Ki: 15.9 ± 4 µM

## NCCCCN(CCCN)CCCN(CCCN)CCCCN [19b]
[1]; [3]
  Ki: 0.24 ± 0.03 µM
[1]; [4]
  Ki: 1.7 ± 0.4 µM
[1]; [6]
  Ki: 2.8 ± 0.6 µM
T-47D cells
  effect on spermidine-mediated reversal of DFMO-induced growth inhibition, T-47D: significantly potentiated DFMO-induced cytostasis

## NCCCCN(CC#CCN(CCCN)CCCCN)CCCN [26b]
[1]; [3]
  Ki: 1.9 ± 0.4 µM
[1]; [4]
  Ki: 16.9 ± 2 µM
[1]; [6]
  Ki: 27.7 ± 3.2 µM

## NCCCN(CCCN)CCCCCN(CCCN)CCCN [21a]
[1]; [3]
  Ki: 0.54 ± 0.11 µM
[1]; [4]
  Ki: 3.1 ± 0.5 µM
[1]; [6]
  Ki: 2.6 ± 0.7 µM

## NCCCNCCCCN(CCCN)Cc1ccc(CN(CCCN)CCCCNCCCN)cc1 [BSM-X]
[1]; T-47D cells
  fold lower apparent Ki for spermidine uptake inhibition relative to the spermine monomer: 2 fold
[1]; [5]
  Ki: 1.1 ± 0.1 µM

## NCCCN(CCCN)CCCCCCCCCCN(CCCN)CCCN [24a]
[1]; [3]
  Ki: 1.6 ± 0.4 µM
[1]; [4]
  Ki: 1.5 ± 0.2 µM
[1]; [6]
  Ki: 2.4 ± 0.7 µM

## NCCCN(CCCN)Cc1cccc(CN(CCCN)CCCN)c1 [27a]
[1]; [3]
  Ki: 0.64 ± 0.08 µM
[1]; [4]
  Ki: 3 ± 0.5 µM
[1]; [6]
  Ki: 5.7 ± 1.3 µM

## NCCCN(CCCN)CCCCN(CCCN)CCCN [20a]
[1]; [3]
  Ki: 0.72 ± 0.2 µM
[1]; [4]
  Ki: 4.9 ± 0.1 µM
[1]; [6]
  Ki: 4.3 ± 0.7 µM

## NCCCN(CC#CCN(CCCN)CCCN)CCCN [26a]
[1]; [3]
  Ki: 2.6 ± 0.4 µM
[1]; [4]
  Ki: 25.6 ± 4 µM
[1]; [6]
  Ki: 12.8 ± 2.2 µM

## NCCCCN(C/C=C/CN(CCCN)CCCCN)CCCN [25b]
[1]; [3]
  Ki: 0.27 ± 0.04 µM
[1]; [4]
  Ki: 2 ± 0.5 µM
[1]; [6]
  Ki: 1.6 ± 0.2 µM
